In patent publication US20220117912A1, “L-PIPECOLIC ACID COCRYSTAL OF CANNABIDIOL” (EBERS TECH INC., priority 2019, published 2022):

Experiments:
[1] = Visual water solubility test of the cocrystal (0.6 mg in 3 mL water, shaken and sonicated); assay type: physicochemical
Procedure: 0.6 mg of the cocrystal was placed in a glass vial and 3 mL of water was added. The slurry was immediately shaken and sonicated.

[2] = Exposure to relative humidity (RH) stress, XRPD afterwards; assay type: physicochemical; conditions: 95% RH for 8 days
From the text: X-Ray Powder Diffraction (XRPD): The Rigaku Smart-Lab X-ray diffraction system was configured for reflection Bragg-Brentano geometry using a line source X-ray beam. The x-ray source is a Cu Long Fine Focus tube that was operated at 40 kV and 44 ma. That source provides an incident beam profile at the sample that changes from a narrow line at high angles to a broad rectangle at low angles. Beam conditioning slits are used on the line X-ray source to ensure that the maximum beam size is less than 10 mm both along the line and normal to the line. The Bragg-Brentano geometry is a para-focusing geometry controlled by passive divergence and receiving slits with the sample itself acting as the focusing component for the optics. The inherent resolution of Bragg-Brentano geometry is governed in part by the diffractometer radius and the width of the receiving slit used. Typically, the Rigaku Smart-Lab is operated to give peak widths of 0.1° 2θ or less. The axial divergence of the X-ray beam is controlled by 5.0-degree Soller slits in both the incident and diffracted beam paths. […] Each sample was analyzed from 2 to 40° 2θ using a continuous scan of 6° 2θ per minute with an effective step size of 0.02° 2θ. In the case of high resolution XRPD, samples were analyzed with a scan rate of 1° 2θ per minute with a sample spin rate of 50 rpm. […]

SMILES: C=C(C)[C@@H]1CCC(C)=C[C@H]1c1c(O)cc(CCCCC)cc1O.O=C(O)[C@@H]1CCCCN1 [1:1 cannabidiol:L-pipecolic acid cocrystal]
- Visual dissolution in water ([1]; 0.6 mg of cocrystal in 3 mL of water, shaken and sonicated): none of the solid dissolved
- Water solubility ([1]; water): less than 0.2 mg/mL
- Solid-form stability under humidity stress (XRPD pattern after stress) [2]: cocrystal disassociated during the experiment
